Reference: patent US7332474B2, “Peptides and related compounds having thrombopoietic activity” (Amgen Inc., priority 2001, dated 2008)

Assays:
[1] = target: murine 32D cells transfected with a human mpl receptor (Homo sapiens, UniProt P40238)
Description: The murine 32D cell proliferation assay involves the use of murine 32D cells that have been transfected with a human mpl receptor.

hu-mpl = hu-mpl (Homo sapiens, UniProt P40238); conditions: ratio of KD of TMP1 to KD of peptide
c-mpl [2] = target: T1, c-mpl (Homo sapiens, UniProt P40238); conditions: Cwirla et al., Science 276:1696-1699 (1997); cited from earlier work
T1 sequence (P40238 26-635): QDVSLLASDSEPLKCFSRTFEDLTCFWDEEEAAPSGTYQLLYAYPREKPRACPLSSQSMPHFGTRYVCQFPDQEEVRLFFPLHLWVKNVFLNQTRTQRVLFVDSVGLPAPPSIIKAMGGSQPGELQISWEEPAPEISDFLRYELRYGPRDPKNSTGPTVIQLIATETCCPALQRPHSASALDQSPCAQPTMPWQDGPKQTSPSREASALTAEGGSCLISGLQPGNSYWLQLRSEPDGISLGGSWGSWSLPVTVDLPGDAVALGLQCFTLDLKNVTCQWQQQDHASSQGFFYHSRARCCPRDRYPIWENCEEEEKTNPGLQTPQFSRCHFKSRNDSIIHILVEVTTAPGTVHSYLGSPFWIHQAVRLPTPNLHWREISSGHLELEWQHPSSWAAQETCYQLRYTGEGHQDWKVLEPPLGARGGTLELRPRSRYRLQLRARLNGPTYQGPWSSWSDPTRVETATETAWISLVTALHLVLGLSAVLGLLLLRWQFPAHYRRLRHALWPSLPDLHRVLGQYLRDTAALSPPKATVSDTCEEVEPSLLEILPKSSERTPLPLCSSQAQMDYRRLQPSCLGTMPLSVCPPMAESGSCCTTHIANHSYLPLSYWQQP

c-mpl [3] = target: T1, c-mpl; conditions: Cwirla et al., Science 276:1696-1699 (1997); cited from earlier work; remark: listed apart in the source

| Sequence | Murine 32D Cell Proliferation Assay (relative to TMP1) [1] | Affinity relative to TMP1 (hu-mpl) | IC50 (c-mpl [2]) [µM] | EC50 (c-mpl [3]) [µM] |
| --- | --- | --- | --- | --- |
| QGCSWGGPTLKQWLQCVRAKHS [TMP23] | Not Detectable | >54 |  |  |
| QGCSSGGPTLREWLQCRRMQHS [TMP22] | Not Detectable | >54 |  |  |
| SAQGIEGPTLRQWLAARALETV [TMP1, reference compound] | 100% |  |  |  |
| IEGPTLRQWLAARA [TPO mimetic peptide] |  |  | 0.002 | 0.4 |
| QGALQEGPTLRQWLGWGQWGHS [TMP19] | 27% | 0.07 |  |  |
